Test results published in US9505730B2, “Mineralocorticoid receptor antagonists” (Merck Sharp & Dohme Corp., priority 2011, dated 2016).

biological target: T1, full-length human Mineralocorticoid Receptor (MR) (Homo sapiens, UniProt P08235); assay: human MR NH Pro assay (PathHunter Protein:Protein interaction assay, MR antagonism); type: cell-based; conditions: PathHunter CHO-K1 cells overexpressing human MR; aldosterone 0.3 nM; 6 hours at 37° C.; luminescence; read-out: IC50 rating
T1 construct: host or cells: PathHunter CHO-K1 cells
T1 sequence (P08235 1-984): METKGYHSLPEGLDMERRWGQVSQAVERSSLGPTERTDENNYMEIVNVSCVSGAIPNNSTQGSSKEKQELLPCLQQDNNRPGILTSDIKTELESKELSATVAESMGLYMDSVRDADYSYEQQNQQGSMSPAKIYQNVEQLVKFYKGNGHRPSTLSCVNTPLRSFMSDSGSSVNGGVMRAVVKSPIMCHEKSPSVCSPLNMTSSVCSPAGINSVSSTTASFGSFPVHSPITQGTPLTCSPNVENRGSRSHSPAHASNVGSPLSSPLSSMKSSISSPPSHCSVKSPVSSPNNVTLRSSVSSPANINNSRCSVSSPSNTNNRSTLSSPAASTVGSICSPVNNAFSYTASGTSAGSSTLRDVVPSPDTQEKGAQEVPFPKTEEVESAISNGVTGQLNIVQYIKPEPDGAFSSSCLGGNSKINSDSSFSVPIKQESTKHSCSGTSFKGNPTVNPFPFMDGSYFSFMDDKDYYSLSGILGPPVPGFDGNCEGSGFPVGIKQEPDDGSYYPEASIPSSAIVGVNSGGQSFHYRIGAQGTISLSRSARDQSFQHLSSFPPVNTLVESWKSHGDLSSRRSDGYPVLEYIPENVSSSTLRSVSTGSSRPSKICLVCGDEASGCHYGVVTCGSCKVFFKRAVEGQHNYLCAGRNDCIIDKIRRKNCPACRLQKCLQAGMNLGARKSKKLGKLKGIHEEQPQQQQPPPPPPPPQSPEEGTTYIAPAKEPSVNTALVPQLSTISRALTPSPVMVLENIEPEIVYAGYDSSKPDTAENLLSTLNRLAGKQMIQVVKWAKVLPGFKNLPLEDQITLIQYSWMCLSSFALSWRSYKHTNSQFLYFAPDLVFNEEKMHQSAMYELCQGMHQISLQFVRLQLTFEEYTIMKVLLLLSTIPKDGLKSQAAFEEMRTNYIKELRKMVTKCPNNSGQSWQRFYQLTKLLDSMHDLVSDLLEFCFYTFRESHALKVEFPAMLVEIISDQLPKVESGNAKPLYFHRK
Description: The activity of the compounds of the present invention regarding mineralocorticoid receptor antagonism was evaluated using the following assay.
Assessment of Mr Potency in Hmr Nh Pro Assay
The human MR NH Pro assay is a commercially available PathHunter™ Protein: Protein interaction assay (DiscoveRx; http://www.discoverx.com/nhrs/prod-nhrs.php) that measures the ability of compounds to antagonize full-length human Mineralocorticoid Receptor (MR) binding to a coactivator peptide. PathHunter™ CHO-K1 cells that overexpress human MR (Cat #93-0456C2, Lot No: 09B0913) were cultured in growth media (F12K w/Glutamine and phenol red (Gibco 11765-047) supplemented with 10% HI FBS (Gibco 16000); 0.25 mg/ml Hygromycin in PBS (Invitrogen 10687-010, 50 mg/ml); 100 I.U./mL and 100 μg/mL Pen/Strep (Gibco 15140-122); 0.6 mg/mL Geneticin).
Compounds were assessed for MR antagonist activity by incubating the cells with a titrating dose of compound in F12K w/Glutamine and phenol red culture media (Invitrogen 11765-047) supplemented with 1% Charcoal/Dextran Treated FBS (Hyclone #SH30068.01) and aldosterone (0.3 nM) for 6 hours at 37° C.
• F12K w/Glutamine and phenol red (Gibco 11765-047) • 10% HI FBS (Gibco 16000) • 0.25 mg/ml Hygromycin in PBS (Invitrogen 10687-010, 50 mg/ml) • 100 I.U./mL and 100 μg/mL Pen/Strep (Gibco 15140-122) • 0.6 mg/mL Geneticin (Gibco 10131, 50 mg/ml) 2. Assay media: • F12K w/Glutamine and phenol red (Invitrogen 11765-047) • 1% Charcoal/Dextran Treated FBS (Hyclone #SH30068.01) 3. 3× PathHunter Detection Reagents (Cat#93-0001) (need ˜6 ml/plate). […] Control Agonist: Aldosterone: Sigma cat #A9477 • Prepare stock solution—10 μM in DMSO kept at −20 C • for assay, dilute in assay media to 1.8 or 6 nM (6× of final concentration=about 0.3 nM to about 1.0 nM) 5. Cell line: PathHunter CHO-K1 MR cells Cat #93-0456C2, Lot No: 09B0913, from operation liquid nitrogen stock. 6. Control Antagonist: Spironolactone: Sigma #S-3378 and Eplerenone Sigma #107724-20-9 (10 mM stock concentration also prepared in DMSO and stored at −20° C.). Methods: Assay Set up and Calculations: • 1. Cells were grown in F12+FBS+Hygromycin+pen/strep+Genetin. • 2. Cells were collected with 0.05% trypsin and the cell suspension was spun and resuspended in a volume of F12+1.5% CD-FBS and counted. • 3. The cells were resuspended to 4×10^5 cells/mL. • 4. Cells were (25 μL/well) added to the wells of a 384 well plate. • 5. The plate was then incubated at 37° C. over night in a humidified incubator with 5% CO2. • 6. Test compounds were titrated starting at 4.4 mM, 10-point titration in 1:3 dilution. • 7. Aldosterone was diluted in assay media to 1.8 nM or 6 nM from 10 μM stock (final concentration to be about 0.3 nM to about 1.0 nM). Protocol for 384 well plate format: 6 hr treatment: • 1. Plated 10K exponentially growing cells/well (25 μL) resuspended in assay media to each well using the Multidrop (Thermo Electron). Use white wall, clear bottom assay plates (Costar #3570) and incubate overnight at 37° C., 5% CO2. • 2. 0.25 μL 120× test compound (final DMSO concentration should be <1%) was added to each well n=2, 10 point titrations starting at 36.7 μM final concentration. • 3. 5 μL 6× agonist (final aldosterone concentration should be about 0.3 nM to about 1.0 nM) was added to all wells using the PlateMate Plus.
(ThermoFisher) (except those wells in columns 23 and 24) • 4. 5 μL of assay media was added to all wells in column 23 and 24. • 5. Plates were incubated 6 hrs at 37° C., 5% CO2. • 6. 15 μL 3× DiscoveRx detection reagent was added to each well. • 7. Plates were incubated for 1 hour at room temperature (plates stored in the dark). • 8. Plates were read on Envision (PerkinElmer) luminesence plate reader and analyzed using ADA. LC/MS method: (LC2M_Low/Med_Positive mode). LC Conditions: 5-98% CH3CN/H2O+v 0.1% TFA over 1.25 min; Flow Rate=1.5 mL/min, UV wavelength 254 nm; Column: Waters XTerra® MS C18 3.5 μm 2.1×20 mm IS™

Row | Compound | IC50 [nM]
1 | C[C@H](c1ccccc1)N1C(=O)O[C@](Cc2ccccc2)(C(=O)N2Cc3ccccc3C2)C1=O [Compound 22, (5R)-Benzyl-5-(1,3-dihydro-2H-isoindol-2-ylcarbonyl)-3-[(1R)-1-phenylethyl]-1,3-oxazolidine-2,4-dione] | 100 to 500
2 | C[C@H](c1ccccc1)N1C(=O)O[C@](Cc2ccccc2)(C(=O)N2CCc3ccccc3C2)C1=O [Compound 21, (5R)-Benzyl-5-(3,4-dihydroisoquinolin-2(1H)-ylcarbonyl)-3-[(1R)-1-phenylethyl]-1,3-oxazolidine-2,4-dione] | 100 to 500
3 | COc1cc(CNC(=O)[C@@]2(Cc3ccccc3)OC(=O)N([C@H](C)c3ccc(Cl)cc3)C2=O)cc(OC)c1 [Compound 9, (5R)-5-Benzyl-3-[(1R)-1-(4-chlorophenyl)ethyl]-N-(3,5-dimethoxybenzyl)-2,4-dioxo-1,3-oxazolidine-5-carboxamide] | < 100
4 | COc1cc(CNC(=O)[C@@]2(Cc3ccc(F)cc3)OC(=O)N([C@H](C)c3ccccc3)C2=O)cc(OC)c1 [Compound 3, (5R)-N-(3,5-Dimethoxybenzyl)-5-(4-fluorobenzyl)-2,4-dioxo-3-[(1R)-1-phenylethyl]-1,3-oxazolidine-5-carboxamide] | 100 to 500
5 | C[C@H](c1ccc(F)cc1)N1C(=O)O[C@](Cc2ccc(F)cc2)(C(=O)NCc2ccc(Cl)c(Cl)c2)C1=O [Compound 2, (5R)-N-(3,4-Dichlorobenzyl)-5-(4-fluorobenzyl)-3-[(1R)-1-(4-fluorophenyl)ethyl]-2,4-dioxo-1,3-oxazolidine-5-carboxamide] | 100 to 500
6 | C[C@H](C1CCCCC1)N1C(=O)O[C@](Cc2ccccc2)(C(=O)NCc2ccc(Cl)c(Cl)c2)C1=O [Compound 17, (5R)-5-Benzyl-3-[(1R)-1-cyclohexylethyl]-N-(3,4-dichlorobenzyl)-2,4-dioxo-1,3-oxazolidine-5-carboxamide] | 100 to 500
7 | C[C@H](c1ccc(F)cc1)N1C(=O)O[C@](Cc2ccccc2)(C(=O)NC(c2cccc(Cl)c2)C(F)(F)F)C1=O (stereo partly drawn) [Compound 18, (5R)-5-Benzyl-N-[1-(3-chlorophenyl)-2,2,2-trifluoroethyl]-3-[(1R)-1-(4-fluorophenyl)ethyl]-2,4-dioxo-1,3-oxazolidine-5-carboxamide] | 100 to 500
8 | C[C@H](c1ccc(F)cc1)N1C(=O)O[C@](Cc2ccccc2)(C(=O)Nc2ccc(Cl)cc2)C1=O [Compound 14, (5R)-5-Benzyl-N-(4-chlorophenyl)-3-[(1R)-1-(4-fluorophenyl)ethyl]-2,4-dioxo-1,3-oxazolidine-5-carboxamide] | 100 to 500
